Experimental data reported in patent US7829563B2, “Aminoamides as orexin antagonists” (Hoffmann-La Roche Inc., priority 2007, dated 2010).

molecular target: T1, human orexin-2 (hOX2) receptors (Homo sapiens, UniProt O43614); experiment: Intracellular Ca2+ mobilization assay (FLIPR), antagonism of orexin-A; format: cell-based; settings: CHO(dHFr−) cells stably expressing hOX2; orexin-A at EC80 as agonist; Kb=IC50/(1+[A]/EC50); read-out: Kb (μM) OX2R (human)
T1 construct: expressed in transfected cells
T1 sequence (O43614 1-444): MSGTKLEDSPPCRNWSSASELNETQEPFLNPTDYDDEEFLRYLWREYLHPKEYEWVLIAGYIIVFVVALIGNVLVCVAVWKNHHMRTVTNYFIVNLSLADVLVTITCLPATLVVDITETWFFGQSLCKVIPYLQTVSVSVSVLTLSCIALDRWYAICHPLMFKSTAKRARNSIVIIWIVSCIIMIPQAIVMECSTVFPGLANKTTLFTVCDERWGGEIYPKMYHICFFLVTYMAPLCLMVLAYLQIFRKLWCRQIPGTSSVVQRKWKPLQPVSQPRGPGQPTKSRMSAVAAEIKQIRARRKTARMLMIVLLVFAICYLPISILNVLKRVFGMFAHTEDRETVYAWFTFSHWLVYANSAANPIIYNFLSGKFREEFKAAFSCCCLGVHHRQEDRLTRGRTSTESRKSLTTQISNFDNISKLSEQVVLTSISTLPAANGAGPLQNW
Description: R^7 and R^8 in scheme 5 are hydrogen, and the other substituents are as described above The compounds were investigated in accordance with the test given hereinafter. Intracellular Ca^2+ Mobilization Assay
The Chinese Hamster Ovary (dHFr−) mutant cell line stably expressing human orexin-1 (hOX1) or human orexin-2 (hOX2) receptors were maintained in Dulbecco's Modified Eagle Medium (1×) with GlutaMax™ 1, 4500 mg/L D-Glucose and Sodium Pyruvate (Catalog No. 31966-021, Invitrogen, Carlsbad, Calif.), 5% dialyzed fetal calf serum (Catalog No. 26400-044), 100 μg/ml penicillin and 100 μg/ml streptomycin. The cells were seeded at 5×10^4 cells/well in the poly-D-lysine treated, 96-well, black/clear-bottomed plates (Catalog No. BD356640, BD Biosciences, Palo Alto, Calif.). 24 h later, the cells were loaded for 1 h at 37° C. with 4 μM Flou-4 acetoxymethyl ester (Catalog No. F-14202, Molecular Probes, Eugene, Oreg.) in FLIPR buffer (1×HBSS, 20 mM HEPES, 2.5 mM Probenecid). Hanks' Balanced Salt Solution (HBSS) (10×) (catalog No. 14065-049) and HEPES (1M) (catalog No. 15630-056) were purchased from Invitrogen, Carlsbad, Calif. Probenecid (250 mM) (catalog No. P8761) was from Sigma, Buchs, Switzerland. The cells were washed five times with FLIPR buffer to remove excess dye and intracellular calcium mobilization, [Ca^2+]i were measured using a Fluorometric Imaging Plate Reader (FLIPR-96, Molecular Devices, Menlo Park, Calif.) as described previously (Malherbe et al., Mol. Pharmacol., 64, 823-832, 2003). Orexin A (catalog No. 1455, Toris Cookson Ltd, Bristol, UK) was used as agonist. Orexin A ([…] stock solution in DMSO) was diluted in FLIPR buffer+0.1% BSA. The EC50 and EC80 values of orexin-A were measured daily from standard agonist concentration-response curves in CHO(dHFr−)-OX1R and —OX2R cell lines. All compounds were dissolved in 100% DMSO. Inhibition curves were determined by addition of 11 concentrations (0.0001-10 μM) of inhibitory compounds and using EC80 value of orexin-A as agonist (a concentration which gave 80% of max agonist response, determined daily). The antagonists were applied 25 min (incubation at 37° C.) before the application of the agonist. Responses were measured as peak increase in fluorescence minus basal, normalized to the maximal stimulatory effect induced by EC80 value of orexin-A or orexin-B. Inhibition curves were fitted according to the Hill equation: y=100/(1+(x/IC50)^nH), where nH=slope factor using Excel-fit 4 software (Microsoft). Kb values were calculated according to the following equation Kb=IC50/(1+[A]/EC50) where A is the concentration of agonist added which is very close to agonist EC80 value, and IC50 and EC50 values were derived from the antagonist inhibition and orexin-A or B agonist curves, respectively.

`CNC(=O)[C@H](N[C@H](CCc1ccc(C(F)(F)F)cc1)c1ccc(Cl)c(OC)c1)c1ccccc1` (racemic) [Example 176, (S,R)-2-[(S,R)-1-(4-Chloro-3-methoxy-phenyl)-3-(4-trifluoromethyl-phenyl)-propylamino]-N-methyl-2-phenyl-acetamide] and `CNC(=O)[C@H](N[C@@H](CCc1ccc(C(F)(F)F)cc1)c1ccc(Cl)c(OC)c1)c1ccccc1` (racemic) [Example 177, (S,R)-2-[(R,S)-1-(4-Chloro-3-methoxy-phenyl)-3-(4-trifluoromethyl-phenyl)-propylamino]-N-methyl-2-phenyl-acetamide] are within 1.5-fold of each other in Kb: 0.0086 µM for the first, 0.0099 µM for the second.

`CCNC(=O)[C@H](NC(CCc1ccc(C(F)(F)F)cc1)c1ccc(OC)c(OC)c1)c1ccccc1` (single isomer, unassigned) [Example 13, (R)-2-[(R or S)-1-(3,4-Dimethoxy-phenyl)-3-(4-trifluoromethyl-phenyl)-propylamino]-N-ethyl-2-phenyl-acetamide] and `CNC(=O)[C@H](N[C@@H](CCc1ccc(C(F)(F)F)cc1)c1ccc(OC)c(OC)c1)c1ccccc1` (racemic) [Example 142, (S,R)-2-[(R,S)-1-(3,4-Dimethoxy-phenyl)-3-(4-trifluoromethyl-phenyl)-propylamino]-N-methyl-2-phenyl-acetamide] are within 1.5-fold of each other in Kb: 0.0026 µM for the first, 0.003 µM for the second.

Going from `CNC(=O)[C@H](N[C@@H](CCc1ccc(C(F)(F)F)nc1)c1ccc(Cl)c(OC)c1)c1ccc(F)cc1` (racemic) [Example 224, (S,R)-2-[(R,S)-1-(4-Chloro-3-methoxy-phenyl)-3-(6-trifluoromethyl-pyridin-3-yl)-propylamino]-2-(4-fluoro-phenyl)-N-methyl-acetamide] to `CNC(=O)[C@H](N[C@@H](CCc1ccc(C(F)(F)F)nc1)c1ccc2c(c1)CCCC2)c1ccc(F)cc1` [Example 102, (R)-2-(4-Fluoro-phenyl)-N-methyl-2-[(S)-1-(5,6,7,8-tetrahydro-naphthalen-2-yl)-3-(6-trifluoromethyl-pyridin-3-yl)-propylamino]-acetamide], the Kb rises from 0.0057 µM to 0.0114 µM (2-fold).

First: CNC(=O)[C@H](N[C@H](CCc1ccc(C(F)(F)F)cc1)c1ccc(OC(F)F)c(OC(F)F)c1)c1ccccc1 (racemic) [Example 290, (S,R)-2-[(S,R)-1-(3,4-Bis-difluoromethoxy-phenyl)-3-(4-trifluoromethyl-phenyl)-propylamino]-N-methyl-2-phenyl-acetamide]
Second: CNC(=O)[C@H](N[C@@H](CCc1ccc(C(F)(F)F)cc1)c1cc(C)ccc1F)c1ccccc1 [Example 123, (R)-2-[(S)-1-(2-Fluoro-5-methyl-phenyl)-3-(4-trifluoromethyl-phenyl)-propylamino]-N-methyl-2-phenyl-acetamide]
The Kb of the first is 4.2-fold higher: 0.0536 µM for the first, 0.0129 µM for the second.

First: CNC(=O)[C@H](N[C@@H](CCc1ccc(C(F)(F)F)nc1)c1ccc(OC)c(OC)c1)c1ccccc1 (racemic) [Example 171, (S,R)-2-[(R,S)-1-(3,4-Dimethoxy-phenyl)-3-(6-trifluoromethyl-pyridin-3-yl)-propylamino]-N-methyl-2-phenyl-acetamide]
Second: CCNC(=O)[C@H](N[C@@H](CCc1ccc(C(F)(F)F)nc1)c1ccc(F)c(C)c1)c1ccccc1 (racemic) [Example 340, (R,S)—N-Ethyl-2-[(S,R)-1-(4-fluoro-3-methyl-phenyl)-3-(6-trifluoromethyl-pyridin-3-yl)-propylamino]-2-phenyl-acetamide]
The Kb of the first is 3.6-fold lower: 0.005 µM for the first, 0.0178 µM for the second.

`CNC(=O)[C@H](N[C@@H](CCc1ccc(C(F)(F)F)cc1)c1ccc2c(c1)CCCO2)c1ccccc1` [Example 113, (R)-2-[(S)-1-Chroman-6-yl-3-(4-trifluoromethyl-phenyl)-propylamino]-N-methyl-2-phenyl-acetamide] and `CNC(=O)[C@H](N[C@@H](CCc1ccc(Cl)cc1)c1ccc(OC)c(OC)c1)c1ccc(Cl)cc1` (racemic) [Example 319, (R,S)-2-(4-Chloro-phenyl)-2-[(S,R)-3-(4-chloro-phenyl)-1-(3,4-dimethoxy-phenyl)-propylamino]-N-methyl-acetamide] are within 1.5-fold of each other in Kb: 0.0089 µM for the first, 0.0086 µM for the second.
